Experiments:
murine TECs = experiment: Murine TEC cultures (MCT): mRNA expression (qRT-PCR), pSmad1/5/8 immunostaining, proliferation; format: cell-based, mouse; settings: cultured TECs, GPI-1046 10 μM
[1] = test system: chronically injured hearts; experiment: Angiotensin II (AT II)-induced cardiac hypertrophy and fibrosis; format: in vivo, mice; settings: heart, 10 mg/kg subcutaneously per day starting one day prior
Procedure: Eight to twelve weeks old C57BL/6 mice were anesthetized with isoflurane inhalation (2-3%), analgesia was performed by subcutaneous injection of 0.1 mg/kg body weight Buprenorphine per day. Osmotic minipumps (Alzet, Cupertino, USA) were loaded with AT II to continuously deliver 1.44 μg/kg body weight per day and implanted subcutaneously (123). Mice were sacrificed 14 days after implantation for further analyses. Mice were injected subcutaneously with 10 mg/kg body weight per day GPI-1046 (Santa Cruz Biotechnology, Dallas, USA) in DMSO once daily starting one day prior of surgery, control mice received equivalent volume of vehicle DMSO. […] For morphometric analysis of interstitial fibrosis, fibrotic areas were assessed by using cellSens (Olympus, Tokyo, Japan) software. Ten visual fields were selected randomly for each MTS stained section at 200× magnification and the relative interstitial fibrotic area was evaluated by using a 10 mm2 graticule. Tubular damage was analysed after PAS stain and graded according to a semi-quantitative score of 0 to 3 (0: normal, 1: mild, 2: moderate, 3: severe) at 400× magnification in a total number of 100 tubules per section (158). […] Cardiomyocyte diameters were determined from 100 random fibers in PAS-stained heart sections using cellSens (Olympus, Tokyo, Japan) software.

[2] = test system: intrarenal ARNT and ALK3 transcription; settings: GSE1563; regimens including FK506 compared to CsA; cited from earlier work
TEC cultures = experiment: RT2 Profiler PCR arrays (transcription factor, hypoxia, drug metabolism) in TECs; format: cell-based
Procedure: To compare qPCR-validated cDNA samples after FK506 treatment and DMSO control, gene expression profiling was performed using commercially available plates (PAHS-075Z/PAMM-002Z/PAMM032Z, SABiosciences, Qiagen, Hilden, Germany). HK-2 cells were plated in 6 well culture plates as previously described and stimulated with 150 ng/mL FK506, MCT cells with 200 pM FK506. After 6 hours, cells were dissolved and RNA was isolated, digested and reverse transcripted. The 25 ng cDNA equivalent of total RNA was added to the reaction mixture containing diluted 2× RT^2 SYBR Green ROX qPCR Mastermix (Qiagen, Hilden, Germany) in a final volume of 25 μL for each well of the RT2 Profiler PCR. PCR reactions were performed under recommended thermal cycling conditions (10 min at 95° C., 15 s at 95° C., 1 min at 60° C. for 40 cycles). To verify PCR specificity, dissociation curve analysis was generated. Relative levels of mRNA expression were normalized in all the samples with expression levels of included housekeeping genes, and data analysis was done using an web-based analysis software provided by SABiosciences. Transcription factor binding sites within the ALK3 proximal promoter was performed 5000 basepairs relative to transcriptional start site using […] database (98).

ARNT dimers = experiment: Native gel electrophoresis of endogenous ARNT in TECs; format: cell-based, mouse; settings: TECs upon exposure to FK506
Description: Tissue and cells were homogenized in NP40 lysis buffer (Life technologies, Carlsbad, USA) supplemented with protease inhibitor cocktail (Roche, Basel, Switzerland). After sonication, protein samples were resolved by a 4-12% Bis-Tris polyacrylamide gel electrophoresis system (Novex, Carlsbad, USA) and transferred onto a nitrocellulose membrane (GE Healthcare, Freiburg, Deutschland), followed by a blocking step with 5% dry milk or 5% bovine serum albumin (BSA) in TBS-T (TBS pH 7.2, 0.1% Tween-20) to prevent unspecific bindings. After incubation with respective primary antibodies against ALK3 (ABD51, Merck Millipore, Billerica, USA) and ALK6 (ABD50, Merck Millipore, Billerica, USA), pSmad1/5/8 (13820, Cell Signaling, Danvers, USA), Arnt (3718, Cell Signaling, Danvers, USA), Fkbp12 (ab2918, Abcam Biochemicals, Cambridge, UK), NFATc1 (sc-7294, Santa Cruz Biotechnology, Dallas, USA), NFATc2 (sc-7295, Santa Cruz Biotechnology, Dallas, USA), β-actin (A5316, Sigma, St. Louis, USA) and Gapdh (5G4, HyTest, Turku, Finland), secondary HRP-conjugated antibodies were used (Dako, Glostrup, Denmark). Luminescence was detected by using chemiluminescent substrate (Cell Signaling, Danvers, USA) on a ChemiDoc XRS system (Bio-Rad, Hercules, USA). Native protein samples were prepared with Native PAGE Sample Prep kit (Novex, Carlsbad, USA) according to the manufacturer's instruction. […]

[3] = FK506 blood concentration measurements (ELISA, whole blood); format: in vivo, mice
Procedure: FK506 concentration in whole blood samples of mice was measured using colorimetric FK506 Elisa Kit (Abnova, Taipei, […]) according to the manufacturer's protocol. Briefly, 25 μL of whole blood samples and standard solutions containing 0, 2, 10 and 50 ng/mL FK506 were analyzed by OD measurements at 450 nanometer (nm) wavelength.

Row | SMILES | canonical BMP signaling responses (murine TECs) | transcriptional induction of ARNT and ALK3 mRNA expression levels (murine TECs) | ALK3-dependent canonical BMP signaling responses [1] | protection from fibrogenesis [1] | intrarenal ARNT and ALK3 transcription [2] | induction of transcriptional factors AR, ARNT, CEPB, CREB1, GATA3 and MAX (array) (TEC cultures; TEC cultures upon FK506 exposure) | pathways involved in hypoxic signaling or drug metabolism (mRNA expression arrays) (TEC cultures; TECs exposed to FK506) | formation of ARNT dimers (ARNT dimers) | FK506 blood concentration ([3]; 0.02 mg/kg orally per day) | FK506 blood concentration ([3]; 0.075 mg/kg orally per day) | FK506 blood concentration ([3]; 0.2 mg/kg orally per day)
1 | CCC(C)(C)C(=O)C(=O)N1CCC[C@H]1C(=O)OCCCc1cccnc1 [GPI-1046, 3-(3-pyridyl)-1-propyl-(2S)-1-(3,3-dimethyl-1,2-dioxopentyl)-2-pyrrolidinedine carboxylate] | activation of canonical BMP signaling responses | equally effective | equally effective | equally effective |  |  |  |  |  |  | 
2 | C=CC[C@@H]1/C=C(\C)C[C@H](C)C[C@H](OC)[C@H]2O[C@@](O)(C(=O)C(=O)N3CCCC[C@H]3C(=O)O[C@H](/C(C)=C/[C@@H]3CC[C@@H](O)[C@H](OC)C3)[C@H](C)[C@@H](O)CC1=O)[C@H](C)C[C@@H]2OC [FK506, tacrolimus] |  |  |  |  | enhanced | at least 2 fold | did not markedly induce | further enhanced | 245 ± 73 pg/mL | 452 ± 71 pg/mL | 535 ± 36 pg/mL

From patent publication US12440479B2, “Prevention or treatment of chronic organ injury” (GEORG-AUGUST-UNIVERSITAET GOETTINGEN, STIFTUNG …, priority 2018, dated 2025)
